Measured values from the SangsterLogP compilation.

How the values were obtained:
[1] = method code SF-AS, from DOI: 10.1021/jm00213a023, PMID: 321779
[2] = method code SF, from DOI: 10.1021/jm00213a023, PMID: 321779
[3] = method code SF-C, from DOI: 10.1021/jm00213a023, PMID: 321779

Row | logP [1] | Structure (SMILES) | other results
1 | 2.3 | CC(C)CCOc1cc(N)ccc1C(=O)O | 
2 | 0.5 | Nc1ccc(C(=O)O)cc1O | 
3 | 2.38 | CCCCCOc1cc(N)ccc1C(=O)O | 
4 | 0.13 | Nc1ccc(C(=O)O)cc1N | 
5 | 1.33 | Nc1ccc(C(=O)O)c(Cl)c1 | 
6 |  | Nc1ccc(C(=O)O)cc1N1C(=O)CSC1=S | logP [2]: 1.66
7 | 0.45 | COc1cc(N)ccc1C(=O)O | 
8 | 3.77 | CCCCCCCCOc1cc(N)ccc1C(=O)O | 
9 | 1.41 | Nc1ccc(C(=O)O)cc1F | 
10 | 1.24 | CCCCOc1cc(N)ccc1C(=O)O | 
11 | -0.31 | Nc1ccc(C(=O)O)c(N)c1 | 
12 | 2.23 | Nc1ccc(C(=O)O)cc1Br | 
13 | 1.49 | Nc1ccc(C(=O)O)c(Br)c1 | 
14 |  | Cc1cc(N)ccc1C(=O)O | logP [3]: 1.14
15 | 1.25 | C=CCOc1cc(N)ccc1C(=O)O | 
16 | 1.65 | Nc1ccc(C(=O)O)c(I)c1 | 
17 | 1.29 | Nc1ccc(C(=O)O)c(F)c1 | 
18 | 1.21 | Nc1ccc(C(=O)O)c([N+](=O)[O-])c1 | 
19 | 2.35 | Nc1ccc(C(=O)O)cc1Cl | 
20 | 3.37 | CCCCCCCOc1cc(N)ccc1C(=O)O | 
21 |  | CCOc1cc(N)ccc1C(=O)O | logP [2]: 0.99
22 | 2.36 | Nc1ccc(C(=O)O)cc1I | 
